Data as given in article PMC11787888, “Development and confirmation of humanized plasma and epithelial lining fluid exposures of meropenem, cefiderocol and tobramycin in a standardized neutropenic murine pneumonia model” (Journal of Antimicrobial Chemotherapy, 2024).
≈ marks a conversion by molar mass, not a printed value. Read-outs that look alike come from different tables or passages of the source.

How the values were obtained:
[1] = cited from earlier work; for %fT > MIC for a MIC of 1 µg/mL / %fT > MIC for a MIC of 2 µg/mL / %fT > MIC for a MIC of 4 µg/mL / %fT > MIC for a MIC of 8 µg/mL / %fT > MIC for a MIC of 16 µg/mL / %fT > MIC for a MIC of 32 µg/mL / %fT > MIC for a MIC of 64 µg/mL / %fT > MIC for a MIC of 128 µg/mL: human plasma, 2 g every 8 h as a 3 h infusion
[2] = ELF pharmacokinetics in the COMBINE murine neutropenic pneumonia model; details: for k el: female, CD-1, mouse, epithelial lining fluid (ELF), sc; for %fT > MIC for a MIC of 1 µg/mL / %fT > MIC for a MIC of 2 µg/mL / %fT > MIC for a MIC of 4 µg/mL / %fT > MIC for a MIC of 8 µg/mL / %fT > MIC for a MIC of 16 µg/mL / %fT > MIC for a MIC of 32 µg/mL / %fT > MIC for a MIC of 64 µg/mL / %fT > MIC for a MIC of 128 µg/mL / K a-ELF (absorption rate constant into ELF compartment) / V ELF (volume of distribution in ELF compartment): mouse ELF; for K a-ELF (absorption rate constant into ELF compartment) / V ELF (volume of distribution in ELF compartment): best-fit one-compartment model
Description: (§1) The model followed the COMBINE protocol with laboratory-specific detailed methods as follows.[6] Specific pathogen free CD-1, female mice 6–8 weeks old were acquired from Charles River Laboratories, Inc. (Raleigh, NC, USA). All animals were allowed to acclimatize for 72 h before any study procedures and were housed as groups of six at controlled room temperature in HEPA-filtered cages (Innovive, San Diego, CA, USA). Study rooms were maintained with diurnal cycles (12 h light/12 h dark) and food and water were provided ad libitum.
(§2) Neutropenia was achieved through 0.2 mL intraperitoneal (IP) administrations of cyclophosphamide 150 mg/kg on day minus 4 and an additional 100 mg/kg on day minus 1. A predictable degree of renal impairment was produced using 5 mg/kg of uranyl nitrate (Electron Microscopy Sciences, Hatfield, PA, USA) dissolved in sterile water administered as a 0.2 mL IP injection on day minus 3. […] Mice were anaesthetised using inhaled isoflurane, manually restrained upright and infected with 50 µL of bacterial suspension via the nares. Each bacterial inoculation suspension was used within 30 minutes of initial preparation.
(§3) The purpose of these studies was to establish HSRs in both plasma and ELF in the COMBINE murine neutropenic pneumonia model equivalent to clinical doses of meropenem (2 g every 8 h as 3 h infusion),[9] cefiderocol (2 g every 8 h as 3 h infusion)[10] and tobramycin (7 mg/kg as 0.5 h infusion)[11–13] based on unbound (free) exposures.
(§4) At predefined timepoints (shown in Figures 1–3), groups of six mice had blood sampled via retro-orbital bleeding (two time points, under anaesthesia with isoflurane 2%–3% v/v in 100% oxygen via inhalation) and/or cardiac puncture (one terminal time point). Proparacaine hydrochloride ophthalmic solution 0.5% was applied to the eye (1–2 drops) after blood sampling via retro-orbital bleeding. The volume of blood collected was 0.15 mL per sample via retro-orbital bleeding with subsequent fluid replacement using 0.2 mL normal saline given IP. Mice were euthanized by CO2 exposure before cardiac puncture. Following blood collection by cardiac puncture, but before cervical dislocation, bronchoalveolar lavage (BAL) fluid was collected from the mice at the same time points. A catheter was inserted into the trachea of the mice, and lungs were lavaged with four separate aliquots of 0.4 mL of normal saline. The BAL fluid was withdrawn immediately after injection and pooled for each animal. Pooled BAL was centrifuged for 10 min at 4°C and the supernatant was collected for analysis.
(§5) Drug concentrations in ELF were estimated by correcting the drug concentration in BAL fluid for the dilution with normal saline during lung lavage using the following formula: compoundELF = compoundBAL × (ureaplasma/ureaBAL), where compoundBAL is the measured drug concentration in the BAL fluid sample and ureaplasma and ureaBAL are the concentrations of urea in paired plasma and BAL fluid samples from each mouse, respectively. Owing to the lack of albumin in BAL fluid, total ELF concentrations were considered unbound.
(§6) Statistical outliers for each respective analyte were removed by the interquartile range method. Previously reported meropenem, cefiderocol and plazomicin (an aminoglycoside similar to tobramycin) plasma HSRs developed in alternative murine models were used as a baseline.[19],[20] Mathematical modifications were made to the baseline regimens as necessary to achieve translational exposures in the COMBINE model and repeat confirmatory PK studies were undertaken for both plasma and ELF.

[3] = set-up: method as in PMID 17283197, PMID 28848004; details: murine plasma, previously determined; cited from earlier work
[4] = set-up: method as in PMID 33371322, PMID 31724042, PMID 15107149; details: cited from earlier work
[5] = Plasma pharmacokinetics in the COMBINE murine neutropenic pneumonia model; details: for k el: female, CD-1, mouse, plasma, sc; for K a (absorption rate constant into central compartment) / V plasma (volume of distribution in central compartment) / %fT > MIC for a MIC of 1 µg/mL / %fT > MIC for a MIC of 2 µg/mL / %fT > MIC for a MIC of 4 µg/mL / %fT > MIC for a MIC of 8 µg/mL / %fT > MIC for a MIC of 16 µg/mL / %fT > MIC for a MIC of 32 µg/mL / %fT > MIC for a MIC of 64 µg/mL / %fT > MIC for a MIC of 128 µg/mL: mouse plasma; for K a (absorption rate constant into central compartment) / V plasma (volume of distribution in central compartment): best-fit one-compartment model
Description: as §1, §2, §3, §4, §5, §6

clinical = details: human, in vivo
Description: as §3

[6] = cited from earlier work
K. pneumoniae CDC 851 = tested on: K. pneumoniae CDC 851; set-up: method as in earlier work; details: cited from earlier work
[7] = Ex vivo tobramycin plasma protein binding in mice; assay type: in vitro ADME; details: mouse plasma; for fraction unbound at 1 h: subcutaneous
Description: Escalating single doses of tobramycin (2.5, 5 and 10 mg/kg) were administered subcutaneously to determine tobramycin plasma protein binding. Triplicate pooled plasma and ultrafiltrate samples were collected at 1 h (5 mice per replicate, 15 mice per dose) and stored at −80°C until concentration determination. Whole blood was collected in K2EDTA tubes and then subsequently centrifuged at 4°C at 3000g for 10 minutes. Plasma was separated (total plasma) and 900 µL was added to an ultrafiltration device (Centrifree®, Merck Millipore Ltd, Ireland) and centrifuged using a fixed rotor at 10°C at 2000g for an additional 45 minutes to obtain protein free ultrafiltrate. The triplicate free and total tobramycin concentrations were averaged and then free fractions were calculated using the equation: free fraction = concentrationultrafiltrate/concentrationtotal plasma.
Mean percentages of protein binding (±standard deviation) were 27.1% (2.9%), 20.5% (9.3%) and 19.8% (1.5%) at the 1-h timepoint after receiving doses of 2.5, 5 and 10 mg/kg, respectively.

[8] = human, 7 mg/kg as 0.5 h infusion
[9] = human ELF, 2 g every 8 h as a 3 h infusion

## CC(C)(O/N=C(\C(=O)N[C@@H]1C(=O)N2C(C(=O)[O-])=C(C[N+]3(CCNC(=O)c4ccc(O)c(O)c4Cl)CCCC3)CS[C@H]12)c1csc(N)n1)C(=O)O [Cefiderocol, cefiderocol]
[1]
  %fT > MIC for a MIC of 1 µg/mL: 100%
  %fT > MIC for a MIC of 2 µg/mL: 99%
  %fT > MIC for a MIC of 4 µg/mL: 98%
  %fT > MIC for a MIC of 8 µg/mL: 76%
  %fT > MIC for a MIC of 16 µg/mL: 48%
  %fT > MIC for a MIC of 32 µg/mL: 11%
  %fT > MIC for a MIC of 64 µg/mL: 0%
  %fT > MIC for a MIC of 128 µg/mL: 0%
[2]
  k el: 0.0002 s⁻¹
  K a-ELF (absorption rate constant into ELF compartment): 1.94 h⁻¹
  V ELF (volume of distribution in ELF compartment): 0.33 L/kg
[2]; ELF HSR
  %fT > MIC for a MIC of 1 µg/mL: 100%
  %fT > MIC for a MIC of 2 µg/mL: 100%
  %fT > MIC for a MIC of 4 µg/mL: 85%
  %fT > MIC for a MIC of 8 µg/mL: 50%
  %fT > MIC for a MIC of 16 µg/mL: 14%
  %fT > MIC for a MIC of 32 µg/mL: 0%
  %fT > MIC for a MIC of 64 µg/mL: 0%
  %fT > MIC for a MIC of 128 µg/mL: 0%
[3]
  Murine protein binding: 31.6%
[4]
  Human plasma protein binding: 58%
[5]
  k el: 0.000206 s⁻¹
  K a (absorption rate constant into central compartment): 21.71 h⁻¹
  V plasma (volume of distribution in central compartment): 0.19 L/kg
[5]; plasma HSR
  %fT > MIC for a MIC of 1 µg/mL: 100%
  %fT > MIC for a MIC of 2 µg/mL: 100%
  %fT > MIC for a MIC of 4 µg/mL: 91%
  %fT > MIC for a MIC of 8 µg/mL: 76%
  %fT > MIC for a MIC of 16 µg/mL: 50%
  %fT > MIC for a MIC of 32 µg/mL: 16%
  %fT > MIC for a MIC of 64 µg/mL: 0%
  %fT > MIC for a MIC of 128 µg/mL: 0%

## NC[C@H]1O[C@H](O[C@H]2[C@H](O)[C@@H](O[C@H]3O[C@H](CO)[C@@H](O)[C@H](N)[C@H]3O)[C@H](N)C[C@@H]2N)[C@H](N)C[C@@H]1O [Tobramycin, tobramycin]
[1]; [8]
  plasma fAUC0-24: 103000 ng·h/mL
  plasma fCmax: 18.3 mg/L
[2]
  k el: 9.72e-05 s⁻¹
  K a-ELF (absorption rate constant into ELF compartment): 1.74 h⁻¹
  V ELF (volume of distribution in ELF compartment): 0.79 L/kg
[2]; murine, ELF HSR
  ELF fAUC0-24: 76000 ng·h/mL
  ELF fCmax: 6.6 mg/L
clinical
  Kp: 0.69
clinical; 7 mg/kg
  ELF fAUC0-24: 79000 ng·h/mL
  ELF fCmax: 6.8 mg/L
[6]; human, population PK analysis
  AUCELF/AUCplasma penetration ratio: 0.64
K. pneumoniae CDC 851
  MIC: 16 µg/mL (≈ 34.2 µM)
[4]
  Human plasma protein binding: 10%
[7]; average of 2.5, 5 and 10 mg/kg
  Unbound fraction in plasma: 77.6%
[7]; 1 h after 2.5 mg/kg subcutaneously, ultrafiltration, read-out: Mean percentage of protein binding (±standard deviation) (converted)
  fraction unbound at 1 h: 0.729
[7]; 1 h after 5 mg/kg subcutaneously, ultrafiltration, read-out: Mean percentage of protein binding (±standard deviation) (converted)
  fraction unbound at 1 h: 0.795
[7]; 1 h after 10 mg/kg subcutaneously, ultrafiltration, read-out: Mean percentage of protein binding (±standard deviation) (converted)
  fraction unbound at 1 h: 0.802
[7]; average of 2.5, 5 and 10 mg/kg, read-out: Plasma protein binding, average across the three doses (converted)
  fraction unbound at 1 h: 0.776
[5]
  k el: 8.61e-05 s⁻¹
  K a (absorption rate constant into central compartment): 23.68 h⁻¹
  V plasma (volume of distribution in central compartment): 0.37 L/kg
[5]; murine, plasma HSR
  plasma fAUC0-24: 103000 ng·h/mL
  plasma fCmax: 17.7 mg/L

## C[C@@H](O)[C@H]1C(=O)N2C(C(=O)O)=C(S[C@@H]3CN[C@H](C(=O)N(C)C)C3)[C@H](C)[C@H]12 [Meropenem, meropenem]
[1]
  %fT > MIC for a MIC of 1 µg/mL: 100%
  %fT > MIC for a MIC of 2 µg/mL: 100%
  %fT > MIC for a MIC of 4 µg/mL: 100%
  %fT > MIC for a MIC of 8 µg/mL: 78%
  %fT > MIC for a MIC of 16 µg/mL: 50%
  %fT > MIC for a MIC of 32 µg/mL: 19%
  %fT > MIC for a MIC of 64 µg/mL: 0%
  %fT > MIC for a MIC of 128 µg/mL: 0%
[2]
  k el: 0.000694 s⁻¹
  K a-ELF (absorption rate constant into ELF compartment): 7.00 h⁻¹
  V ELF (volume of distribution in ELF compartment): 1.60 L/kg
[2]; ELF HSR
  %fT > MIC for a MIC of 1 µg/mL: 78%
  %fT > MIC for a MIC of 2 µg/mL: 62%
  %fT > MIC for a MIC of 4 µg/mL: 43%
  %fT > MIC for a MIC of 8 µg/mL: 14%
  %fT > MIC for a MIC of 16 µg/mL: 3%
  %fT > MIC for a MIC of 32 µg/mL: 0%
  %fT > MIC for a MIC of 64 µg/mL: 0%
  %fT > MIC for a MIC of 128 µg/mL: 0%
[6]; [9]
  %fT > MIC for a MIC of 1 µg/mL: 90%
  %fT > MIC for a MIC of 2 µg/mL: 71%
  %fT > MIC for a MIC of 4 µg/mL: 50%
  %fT > MIC for a MIC of 8 µg/mL: 16%
  %fT > MIC for a MIC of 16 µg/mL: 0%
  %fT > MIC for a MIC of 32 µg/mL: 0%
  %fT > MIC for a MIC of 64 µg/mL: 0%
  %fT > MIC for a MIC of 128 µg/mL: 0%
[5]
  k el: 0.00754 s⁻¹
  K a (absorption rate constant into central compartment): 1.34 h⁻¹
  V plasma (volume of distribution in central compartment): 0.04 L/kg
[5]; plasma HSR
  %fT > MIC for a MIC of 1 µg/mL: 100%
  %fT > MIC for a MIC of 2 µg/mL: 100%
  %fT > MIC for a MIC of 4 µg/mL: 94%
  %fT > MIC for a MIC of 8 µg/mL: 75%
  %fT > MIC for a MIC of 16 µg/mL: 55%
  %fT > MIC for a MIC of 32 µg/mL: 29%
  %fT > MIC for a MIC of 64 µg/mL: 5%
  %fT > MIC for a MIC of 128 µg/mL: 0%
